Data reported in patent US20260124132A1, “COMPOSITION AND METHOD FOR INHIBITING COLLAGENASE ACTIVITY” (ACCESS BUSINESS GROUP INTERNATIONAL LLC, priority 2022, published 2026).
“And” between values parts separate entries of the source, which are not always exact repeats. Identical values can stand only once.

System: collagenase derived from Clostridium histolyticum
Test: Inhibition of collagenase (fluorescence assay with fluorogenic peptide substrate)
Assay type: biochemical
Details: for Average % inhibition: average of replicates; for Inhibition Rate of collagenase (%): individual replicate
Protocol: The collagenase inhibitory activity of aqueous and ethanol extracts of Cornus officinalis Sieb. et Zucc., Potentilla glabra Lodd. var. mandshurica (Maxim.) Hand.-Mazz, Amomum kravanh Pierre ex Gagnep, and Bombax ceiba Linnaeus were evaluated. The sample mixture (10 μL), 10 μg/mL of the enzyme (collagenase derived from Clostridium histolyticum) and 50 mM Tricine buffer (pH 7.5), was added to a 96-well microtiter plate. […] After a 10 minute incubation at 37° C., the substrate solution ((7-methoxycoumarin-4-yl)acetyl-L-prolyl-L-leucylglycyl-L-leucyl-[Nβ-(2,4-dinitrophenyl)-L-2,3-diaminopropionyl]-Lalanyl-L-arginine amide) was added to obtain a final concentration of 10 μM, and was allowed to react. The fluorescence values were measured after 0 minutes and 30 minutes incubation at 37° C., at an excitation of 320 nm and an emission of 405 nm, using a fluorescence plate reader (EnSpire, Perkin Elmer, Inc., Japan). EGCG was used as a positive control. The average rates of inhibition can also be appreciated with reference to the Figures.

SMILES: O=C(O[C@@H]1Cc2c(O)cc(O)cc2O[C@@H]1c1cc(O)c(O)c(O)c1)c1cc(O)c(O)c(O)c1 [EGCG, epigallocatechin gallate]
- Average % inhibition (concentration 31.25 μg/ml): 19.10%
- Average % inhibition (concentration 62.5 μg/ml): 29.58%
- Average % inhibition (concentration 125 μg/ml): 39.38%
- Average % inhibition (concentration 250 μg/ml): 54.90%
- Average % inhibition (concentration 500 μg/ml): 80.36%
- Average % inhibition (concentration 1000 μg/ml): 106.38%
- Inhibition Rate of collagenase (%) (concentration 31.25 μg/ml): 18.13% and 16.96% and 22.22%
- Inhibition Rate of collagenase (%) (concentration 62.5 μg/ml): 31.14% and 27.49% and 30.12%
- Inhibition Rate of collagenase (%) (concentration 125 μg/ml): 41.37% and 35.23% and 41.52%
- Inhibition Rate of collagenase (%) (concentration 250 μg/ml): 52.78% and 57.02%
- Inhibition Rate of collagenase (%) (concentration 500 μg/ml): 79.53% and 80.99% and 80.56%
- Inhibition Rate of collagenase (%) (concentration 1000 μg/ml): 107.75% and 106.58% and 104.82%
